In patent US7803765B2, “Methods of constructing biodiverse gene fragment libraries and biological modulators isolated therefrom” (Phylogica Limited, priority 2004, dated 2010):
Where no end group is shown, it is not given here.

T1: Id1/E47 interaction (Homo sapiens, UniProt P15923+P41134)
T1 construct: expressed in transfected cells; host or cells: Saccharomyces cerevisiae strain PRT480
T1 sequence (P41134 1-155): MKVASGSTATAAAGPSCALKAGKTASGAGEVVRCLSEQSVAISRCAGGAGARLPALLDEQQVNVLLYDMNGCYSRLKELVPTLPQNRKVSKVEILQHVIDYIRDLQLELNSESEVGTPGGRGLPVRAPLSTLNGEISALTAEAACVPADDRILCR
T1 sequence (P15923 1-651 isoform P15923-2): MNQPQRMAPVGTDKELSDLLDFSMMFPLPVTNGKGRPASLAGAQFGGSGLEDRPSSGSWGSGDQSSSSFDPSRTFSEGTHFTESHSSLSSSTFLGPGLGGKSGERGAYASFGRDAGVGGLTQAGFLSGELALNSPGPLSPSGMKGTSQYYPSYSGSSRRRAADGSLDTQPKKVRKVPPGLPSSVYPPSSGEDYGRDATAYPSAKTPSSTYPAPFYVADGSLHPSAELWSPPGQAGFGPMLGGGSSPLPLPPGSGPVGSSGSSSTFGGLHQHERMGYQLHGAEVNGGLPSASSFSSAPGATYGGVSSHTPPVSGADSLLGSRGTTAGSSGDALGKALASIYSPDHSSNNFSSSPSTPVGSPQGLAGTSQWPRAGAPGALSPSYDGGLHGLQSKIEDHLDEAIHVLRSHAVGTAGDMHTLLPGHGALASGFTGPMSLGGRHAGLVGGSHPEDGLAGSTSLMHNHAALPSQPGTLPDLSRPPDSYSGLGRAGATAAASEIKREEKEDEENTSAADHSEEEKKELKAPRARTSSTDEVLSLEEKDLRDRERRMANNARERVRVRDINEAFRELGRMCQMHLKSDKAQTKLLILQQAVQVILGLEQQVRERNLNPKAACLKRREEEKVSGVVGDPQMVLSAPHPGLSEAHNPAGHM


Key:
SCL/E47 interaction = assay: reverse two-hybrid screen for antagonists of the SCL/E47 interaction in yeast; assay type: cell-based; conditions: re-screened clones
Source text: The nucleic acid encoding the E47 protein was cloned into the bait vector pDD (SEQ NO: 61; FIG. 6) in operable connection with the LexA DNA binding domain. The pDD vector also contains a nucleic acid encoding the HIS3 gene (FIG. 6).
These vectors were transformed into the PRT 480 yeast strain (which contains two LexA-CYH2 chimeric reporter genes and two LexA-URA3 counter selectable reporter genes).
The process of screening the library is represented schematically in FIG. 7. […] Approximately 300,000 diploids were plated onto 30 cm plates containing complete synthetic media lacking histidine and tryptophan (ie., HW media), and supplemented with 0.06% (w/v) galactose/0.04% 5-FOA and glucose.
The FOA-resistant colonies were replica-plated from the master-plate onto plates containing HWU media, or media lacking histidine, tryptophan and leucine (ie. HWL media). The replica-plate media also contained various concentrations of galactose.
Library plasmids were re-transformed into strain PRT51, and the resultant yeast cells were again mated with strain PRT 480 SCL/E47 haploids. Diploids were re-screened for their ability to block the SCL/E47 interaction, by plating in the forward direction on plates containing HWU or HWL media supplemented with various concentrations of galactose.

SCL/E2.22F interaction = biological target: T2, SCL/E2.22F interaction (Homo sapiens, UniProt P15884+P17542); assay: specificity of blocking: two-hybrid in strain PRT480 expressing E2.22F and SCL; assay type: cell-based; conditions: yeast strain PRT480, specificity control
T2 construct: expressed in transfected cells; host or cells: Saccharomyces cerevisiae strain PRT480
Procedure: (§1) Subsequently, the specificity of blocking was assayed, by mating those strains that did recapitulate the blocked phenotype into a strain PRT480 expressing two interacting proteins selected from the group consisting of: (i) E2,2 2F and SCL; and (ii) ID and E47.

Id1/E47 interaction = biological target: T1, Id1/E47 interaction; assay: specificity of blocking: two-hybrid in strain PRT480 expressing ID and E47; assay type: cell-based; conditions: yeast strain PRT480, specificity control
Procedure: as §1

[1] = tested on: anti-Der p 1 monoclonal antibody 2C7; assay: T7-DELFIA binding of phage-displayed peptides to panning antibody 2C7; conditions: 50 μl lysate in the standard T7-DELFIA; 500 ng/well 2C7
Procedure: The monoclonal antibody (approximately 10 μg) was adsorbed to a Petri dish and the amplified phage display library brought into contact with the adsorbed antibody.
The eluate after round three was amplified and ninety-nine individual T7 clones were tested for binding to the panning antibody 2C7 using a dissociation-enhanced ianthinide fluoroimmunoassay (DELFIA) with 500 ng/well 2C7. Assays were performed essentially according to manufacturer's instructions (Perkin Elmer Life Sciences). The first ligand used in the DELFIA was T7lysate (ie the library) (1:2 in assay buffer); second ligand: SIGMA biotinylated anti-T7 monoclonal antibody 1:10,000 (mouse), Strep-Eur+enhancement solution).

monoclonal antibody 2C7 = assay: competition DELFIA of 2C7pan clones binding to 2C7; conditions: for inhibition of clone binding to 2C7 by recombinant Der p 1: competitor recombinant Der p 1
Source text: Competition DELIFAs were then used to study the interaction between the monoclonal antibody and the peptides identified, using recombinant Der p 1 or the epitope of the 2C7 antibody (GST-P1fragment 98-140 […]) as a competitor.

Der p 1 = assay: immunization of mice with 2C7pan phage clones, serum tested by DELFIA and competitive DELFIA; assay type: in vivo; conditions: for anti-Der p 1 immune response in immunized mice: 10^11 phage particles in Freunds complete adjuvant, bled after first booster, DELFIA; for inhibition of immune serum binding to Der p 1 by recombinant Der p 1: competitive DELFIA, BSA as negative control
Procedure: The clones, 2C7pan clones 9, 26 and 42, described in Example 8 were then used to immunize mice. Phage were purified by CsCl gradient centrifugation and then used to immunize mice. Each injection consisted of 10^11 phage particles suspended in Freunds complete adjuvant. After the first booster mice were bled and tested by DELFIA for binding to Der p 1. Furthermore, the specificity of the immune response for Der p 1 was tested using competitive DELFIA.

T2 sequence (P17542 whole entry): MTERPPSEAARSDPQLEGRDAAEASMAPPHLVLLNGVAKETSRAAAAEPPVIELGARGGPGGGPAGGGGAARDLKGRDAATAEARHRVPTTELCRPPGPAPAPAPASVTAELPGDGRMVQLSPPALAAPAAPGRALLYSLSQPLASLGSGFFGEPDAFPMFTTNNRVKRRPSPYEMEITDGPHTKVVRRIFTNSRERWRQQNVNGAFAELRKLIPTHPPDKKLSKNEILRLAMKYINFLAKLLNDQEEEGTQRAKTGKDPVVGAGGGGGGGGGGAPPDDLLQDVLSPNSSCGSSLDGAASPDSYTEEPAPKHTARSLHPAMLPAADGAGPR
T2 sequence (P15884 whole entry): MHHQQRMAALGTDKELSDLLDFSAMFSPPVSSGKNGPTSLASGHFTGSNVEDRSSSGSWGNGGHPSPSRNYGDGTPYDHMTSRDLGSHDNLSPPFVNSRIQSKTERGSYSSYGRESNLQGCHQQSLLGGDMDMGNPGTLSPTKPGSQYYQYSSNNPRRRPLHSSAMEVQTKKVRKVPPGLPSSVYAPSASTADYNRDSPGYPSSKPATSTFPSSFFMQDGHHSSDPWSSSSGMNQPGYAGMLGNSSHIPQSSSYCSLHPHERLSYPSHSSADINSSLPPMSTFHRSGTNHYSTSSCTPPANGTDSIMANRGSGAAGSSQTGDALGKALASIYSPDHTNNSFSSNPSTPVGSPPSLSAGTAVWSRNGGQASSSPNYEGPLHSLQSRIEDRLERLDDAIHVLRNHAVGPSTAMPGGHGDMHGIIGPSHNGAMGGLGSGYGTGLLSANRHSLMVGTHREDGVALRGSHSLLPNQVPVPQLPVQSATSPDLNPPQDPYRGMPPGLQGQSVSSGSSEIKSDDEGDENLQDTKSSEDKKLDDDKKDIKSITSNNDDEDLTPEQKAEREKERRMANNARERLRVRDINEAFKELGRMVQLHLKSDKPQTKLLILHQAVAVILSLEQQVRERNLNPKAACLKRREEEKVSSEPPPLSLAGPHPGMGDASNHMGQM

Molecule | Target interaction SCL/E47 blocked (SCL/E47 interaction) | Target interaction SCL/E2.22F blocked (SCL/E2.22F interaction) | Target interaction Id1/E47 blocked (Id1/E47 interaction) | TRF (time resolved fluorometry) binding to 2C7 [1] | inhibition of clone binding to 2C7 by recombinant Der p 1 (monoclonal antibody 2C7) | anti-Der p 1 immune response in immunized mice (Der p 1) | inhibition of immune serum binding to Der p 1 by recombinant Der p 1 (Der p 1) | inhibition of clone binding to 2C7 by GST-P1fragment 98-140 (monoclonal antibody 2C7; competitor GST-P1fragment 98-140 (2C7 epitope))
BGF 05: non-specific blocker clone; fusion peptide SEQ ID NO: 63, fragment-encoded SEQ ID NO: 65; H. influenzae fragment (MGKPIPNPLLGLDSTQAMGAPPKKKRKVAEFARTTTTRLINQSVVRKIWLYRDAR) | + | + | + |  |  |  |  | 
BGF 06: SCL/E47 peptide blocker; fusion peptide SEQ ID NO: 67, fragment-encoded SEQ ID NO: 69; A. aeolicus fragment (MGKPIPNPLLGLDSTQAMGAPPKKKRKVAEFRSDYKDDDDKAYHIIAVCFLIKVS) | + | − | − |  |  |  |  | 
BGF 13: SCL/E47 peptide blocker; fusion peptide SEQ ID NO: 71, fragment-encoded SEQ ID NO: 73; H. influenzae fragment (MGKPIPNPLLGLDSTQAMGAPPKKKRKVAEFGFCSNQMREM) | + | − | − |  |  |  |  | 
BGF 24: SCL/E47 peptide blocker; fusion peptide SEQ ID NO: 75, fragment-encoded SEQ ID NO: 77; T. maritima fragment (MGKPIPNPLLGLDSTQAMGAPPKKKRKVAEFRSDYKDDDDKLIKHHWVLSIITTASR) | + | − | − |  |  |  |  | 
GDP R T H R (GDPRTHR; numbers in words are those of the source; also: displayed on T7 phage) [Clone 2c7pan26] |  |  |  | 8500 TRF | specifically inhibited | an anti-Der p 1 immune response was induced | inhibited by the addition of recombinant Der p 1 | 
GDPN S A S G T A (GDPNSASGTA; numbers in words are those of the source; also: displayed on T7 phage) [Clone 2c7pan9] |  |  |  | 17000 TRF | specifically inhibited | an anti-Der p 1 immune response was induced | inhibited by the addition of recombinant Der p 1 | 
GDPN S R G K S R E Y L S (GDPNSRGKSREYLS; numbers in words are those of the source; also: displayed on T7 phage) [Clone 2c7pan14] |  |  |  | 1800 TRF | specifically inhibited |  |  | 
GDPN S S S V D K L G Y W R V T E S S N E (GDPNSSSVDKLGYWRVTESSNE; numbers in words are those of the source; also: displayed on T7 phage) [Clone 2c7pan42] |  |  |  | 64000 TRF | only partially inhibited | an anti-Der p 1 immune response was induced | inhibited by the addition of recombinant Der p 1 | higher levels of inhibition
GDPN S S T S P R (GDPNSSTSPR; numbers in words are those of the source; also: displayed on T7 phage) [Clone 2c7pan8] |  |  |  | 1900 TRF | specifically inhibited |  |  | 
BGF 35: SCL/E47 peptide blocker; fusion peptide SEQ ID NO: 79, fragment-encoded SEQ ID NO: 81; H. influenzae fragment (peptide) MGKPIPNPLLGLDSTQAMGAPPKKKRKVAEFQGRRRQGLSINQWLEKYGYIEMQGNETFKLAVRELSNVVEETLLANNLDKKDLDWLVVVVLVV | + | − | − |  |  |  |  | 
